Where two headings read alike, the source gives them in different places.
Assays:
[1] = test system: Salmonella typhimurium tester strains TA97a, TA98, TA100, TA102, TA1537 and TA1538
How it was run: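 Ames pre-incubation test in S. typhimurium TA97a, TA98, TA1537, TA1538 (frameshift) and TA100, TA102 (base-substitution), with or without 10% Aroclor 1254-induced rat liver S-9. Test solutions at 0–500 µg/mL pre-incubated 20 min at 37 °C, plated in histidine/biotin top agar; revertant colonies counted after 44 h at 37 °C.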

Pseudomonas = experiment: Bacterial inactivation by compound plus UVA, colony forming units; format: cell-based; settings: 16 µM; 5 J/cm^2 irradiation; starting titer 6.5 logs
Protocol: In this example bacterial inactivation by the photoreactive nucleic acid binding compounds described herein was measured as a function of the ability of the bacteria to subsequently replicate. A gram negative bacteria was chosen as representative of the more difficult bacterial strains to inactivate.
The bacteria a strain of Pseudomonas, was inoculated into LB with a sterile loop and grown overnight in a shaker at 37°C. Based on the approximation that one OD at 610 nm is equivalent to 5 x 10^8 colony forming units (cfu)/mL, a 1:10 dilution of the culture was measured on a spectrophotometer. (manufactured by Shimatsu). The bacterial culture was added to a solution of 15% fetal bovine serum in DMEM to a final bacteria concentration of approximately 10^6/mL. An aliquot (0.8 mL) was transferred to a 1.5 mL snap-top polyethylene tube. An aliquot (0.004-0.040 mL) of the test compound stock solution prepared in water, ethanol or dimethylsulfoxide at 0.80-8.0 mM was added to the tube. Compounds were tested at a concentration of 16 µM. The tubes were placed in a light device as described in EXAMPLE I and irradiated with 1.3 J/cm^2, 1.2 J/cm^2, and finally 2.5 J/cm^2, for a total of 5 J/cm^2. 150 µL were removed for testing after each pulse period. Sterile 13 mL dilution tubes were prepared; each test compound required one tube with 0.4 mL of LB broth and four tubes containing 0.5 mL of LB broth. To make the dilutions, a 0.050 mL aliquot of the irradiated solution of phage and test compound was added to the first dilution tube of […] of media then 0.050 mL of this solution was added to the second tube of 0.5 mL medium (1:10). The second solution was then diluted serially (1:10) into the remaining tubes. 100 µL of the original sample and each dilution are plated separately onto LB agar plates and incubated at 37 °C overnight. The colony forming units were then counted the following morning and the titer of the phage remaining after phototreatment was calculated based on the dilution factors.
The following controls were run: the "bacteria only" in which bacteria was not treated with test compound and not irradiated (listed as "starting titer" in the tables below); the "UV only" in which the bacteria was irradiated in the absence of test compound. Dark controls were not performed here for reasons set forth in Example 12 above.

[2] = 100 µg/plate, Table 19 (B) experiment, background 7
[3] = 100 µg/plate, Table 19 (B) experiment, background 8
[4] = two-fold or greater increase in revertants above background and dose dependent response

Cc1oc2c(C)c3oc(=O)cc(C)c3cc2c1CN [AMT, 4'-Aminomethyl-4,5',8-trimethylpsoralen, reference compound]
revertant colonies, TA97a +S9 ([1]; 0.1 µg/plate): -23 | revertant colonies, TA97a -S9 ([1]; 0.1 µg/plate): 14 | revertant colonies, TA98 +S9 ([1]; 0.1 µg/plate): 1 | revertant colonies, TA98 -S9 ([1]; 0.1 µg/plate): 3 | revertant colonies, TA100 +S9 ([1]; 0.1 µg/plate): -16 | revertant colonies, TA100 -S9 ([1]; 0.1 µg/plate): -10 | revertant colonies, TA102 +S9 ([1]; 0.1 µg/plate): -20 | revertant colonies, TA102 -S9 ([1]; 0.1 µg/plate): 27 | revertant colonies, TA1537 +S9 ([1]; 0.1 µg/plate): 2 | revertant colonies, TA1537 -S9 ([1]; 0.1 µg/plate): 0 | revertant colonies, TA1538 +S9 ([1]; 0.1 µg/plate): 3 | revertant colonies, TA1538 -S9 ([1]; 0.1 µg/plate): 3 | revertant colonies, TA97a +S9 ([1]; 0.5 µg/plate): 32 | revertant colonies, TA97a -S9 ([1]; 0.5 µg/plate): 9 | revertant colonies, TA98 +S9 ([1]; 0.5 µg/plate): 3 | revertant colonies, TA98 -S9 ([1]; 0.5 µg/plate): 5 | revertant colonies, TA100 +S9 ([1]; 0.5 µg/plate): -12 | revertant colonies, TA100 -S9 ([1]; 0.5 µg/plate): 13 | revertant colonies, TA102 +S9 ([1]; 0.5 µg/plate): 5 | revertant colonies, TA102 -S9 ([1]; 0.5 µg/plate): 47 | revertant colonies, TA1537 +S9 ([1]; 0.5 µg/plate): 2 | revertant colonies, TA1537 -S9 ([1]; 0.5 µg/plate): 3 | revertant colonies, TA1538 +S9 ([1]; 0.5 µg/plate): 13 | revertant colonies, TA1538 -S9 ([1]; 0.5 µg/plate): 4 | revertant colonies, TA97a +S9 ([1]; 1 µg/plate): 32 | revertant colonies, TA97a -S9 ([1]; 1 µg/plate): 54 | revertant colonies, TA98 +S9 ([1]; 1 µg/plate): 21 | revertant colonies, TA98 -S9 ([1]; 1 µg/plate): 5 | revertant colonies, TA100 +S9 ([1]; 1 µg/plate): -19 | revertant colonies, TA100 -S9 ([1]; 1 µg/plate): 17 | revertant colonies, TA102 +S9 ([1]; 1 µg/plate): -17 | revertant colonies, TA102 -S9 ([1]; 1 µg/plate): 88 | revertant colonies, TA1537 +S9 ([1]; 1 µg/plate): 3 | revertant colonies, TA1537 -S9 ([1]; 1 µg/plate): 5 | revertant colonies, TA1538 +S9 ([1]; 1 µg/plate): 37 | revertant colonies, TA1538 -S9 ([1]; 1 µg/plate): 4 | revertant colonies, TA97a +S9 ([1]; 5 µg/plate): 149 | revertant colonies, TA97a -S9 ([1]; 5 µg/plate): 73 | revertant colonies, TA98 +S9 ([1]; 5 µg/plate): 232 | revertant colonies, TA98 -S9 ([1]; 5 µg/plate): 16 | revertant colonies, TA100 +S9 ([1]; 5 µg/plate): -6 | revertant colonies, TA100 -S9 ([1]; 5 µg/plate): 59 | revertant colonies, TA102 +S9 ([1]; 5 µg/plate): 51 | revertant colonies, TA102 -S9 ([1]; 5 µg/plate): 266 | revertant colonies, TA1537 +S9 ([1]; 5 µg/plate): 22 | revertant colonies, TA1537 -S9 ([1]; 5 µg/plate): 44 | revertant colonies, TA1538 +S9 ([1]; 5 µg/plate): 177 | revertant colonies, TA1538 -S9 ([1]; 5 µg/plate): 13 | revertant colonies, TA98 +S9 ([1]; 10 µg/plate): 403 | revertant colonies, TA98 -S9 ([1]; 10 µg/plate): 20 | revertant colonies, TA100 +S9 ([1]; 10 µg/plate): 17 | revertant colonies, TA100 -S9 ([1]; 10 µg/plate): 105 | revertant colonies, TA1537 +S9 ([1]; 10 µg/plate): 30 | revertant colonies, TA1537 -S9 ([1]; 10 µg/plate): 52 | revertant colonies, TA1538 +S9 ([1]; 10 µg/plate): 255 | revertant colonies, TA1538 -S9 ([1]; 10 µg/plate): 14 | revertant colonies, TA98 +S9 ([1]; 50 µg/plate): 620 | revertant colonies, TA98 -S9 ([1]; 50 µg/plate): 69 | revertant colonies, TA100 +S9 ([1]; 50 µg/plate): 52 | revertant colonies, TA100 -S9 ([1]; 50 µg/plate): 73 | revertant colonies, TA1537 +S9 ([1]; 50 µg/plate): 94 | revertant colonies, TA1537 -S9 ([1]; 50 µg/plate): 2688 | revertant colonies, TA98 +S9 ([1]; 100 µg/plate): 745 | revertant colonies, TA98 -S9 ([1]; 100 µg/plate): 114 | revertant colonies, TA100 +S9 ([1]; 100 µg/plate): 85 | revertant colonies, TA100 -S9 ([1]; 100 µg/plate): 75 | revertant colonies, TA1537 +S9 ([1]; 100 µg/plate): 686 | revertant colonies, TA1537 -S9 ([1]; 100 µg/plate): 2058 | revertant colonies, TA1537 +S9 [1, 2]: 500 | revertant colonies, TA1537 -S9 [1, 3]: 608 | revertant colonies, TA98 +S9 ([1]; 250 µg/plate): 933 | revertant colonies, TA98 -S9 ([1]; 250 µg/plate): 112 | revertant colonies, TA100 +S9 ([1]; 250 µg/plate): 89 | revertant colonies, TA100 -S9 ([1]; 250 µg/plate): 24 | revertant colonies, TA1537 +S9 ([1]; 250 µg/plate): 3738 | revertant colonies, TA1537 -S9 ([1]; 250 µg/plate): 434 | frameshift mutagenicity (Ames, summary) [1, 4]: frameshift mutagenicity at between 5 and 10 µg/plate in TA97a and TA98, at 5µg/plate in TA1537 and at 1 µg/plate in TA1538 | base-substitution mutagenicity (Ames, summary) ([1]; two-fold or greater increase in revertants above background and dose dependent response, TA100, TA102): no significant base-substitution mutations | log kill of bacteria (Pseudomonas) (Pseudomonas): 5.2 logs

Cc1cc(=O)oc2c(C)c3oc(COCCN)c(C)c3cc12 [Compound 18, 5'-(4-amino-2-oxa)butyl-4,4',8-trimethylpsoralen]
revertant colonies, TA98 -S9 ([1]; 10 µg/plate, Table 19 (A) experiment, background 17): 21 | revertant colonies, TA98 +S9 ([1]; 10 µg/plate, Table 19 (A) experiment, background 28): 8 | revertant colonies, TA1537 +S9 ([1]; 10 µg/plate, Table 19 (B) experiment, background 7): 8 | revertant colonies, TA1537 -S9 ([1]; 10 µg/plate, Table 19 (B) experiment, background 8): 21 | revertant colonies, TA98 -S9 ([1]; 50 µg/plate, Table 19 (A) experiment, background 17): 303 | revertant colonies, TA98 +S9 ([1]; 50 µg/plate, Table 19 (A) experiment, background 28): 6 | revertant colonies, TA1537 +S9 ([1]; 50 µg/plate, Table 19 (B) experiment, background 7): 6 | revertant colonies, TA1537 -S9 ([1]; 50 µg/plate, Table 19 (B) experiment, background 8): 303 | revertant colonies, TA98 -S9 ([1]; 100 µg/plate, Table 19 (A) experiment, background 17): 390 | revertant colonies, TA98 +S9 ([1]; 100 µg/plate, Table 19 (A) experiment, background 28): 26 | revertant colonies, TA1537 +S9 [1, 2]: 26 | revertant colonies, TA1537 -S9 [1, 3]: 390 | revertant colonies, TA98 -S9 ([1]; 200 µg/plate, Table 19 (A) experiment, background 17): 225 | revertant colonies, TA98 +S9 ([1]; 200 µg/plate, Table 19 (A) experiment, background 28): 42 | revertant colonies, TA1537 +S9 ([1]; 200 µg/plate, Table 19 (B) experiment, background 7): 42 | revertant colonies, TA1537 -S9 ([1]; 200 µg/plate, Table 19 (B) experiment, background 8): 225 | mutagenic response (Ames, summary) [1, 4]: only a weak response at high concentrations in the presence of S9 in strains TA 9o and TA 1537
